Columns and labels:
USP19 = USP19 (Homo sapiens (Human), UniProt O94966); experiment: USP19 activity assay (fluorescence polarisation, Ubiquitin-Lys-TAMRA substrate); format: biochemical; settings: full-length USP19 2.5 nM, 30 min pre-incubation, Ub substrate 500 nM; average of at least two duplicate experiments
[1] = test system: panel of DUBs (24 USPs and 19 other DUBs); experiment: Selectivity profile against a panel of DUBs (Ub-Rh110 substrate, Ubiquigent); format: biochemical; settings: fixed concentration of 100 μM
Method: FIG. 1 Overall selectivity profile of Example 124 against a panel of DUBs. Included in this screen were 24 USPs and 19 other DUBs (as indicated). Example 124 was screened at a fixed concentration of 100 μM using the Ub-Rh110 substrate (Ubiquigent). Residual activity is shown on the y-axis normalised to the no compound (DMSO) control.

USP19, sequence (O94966 whole entry): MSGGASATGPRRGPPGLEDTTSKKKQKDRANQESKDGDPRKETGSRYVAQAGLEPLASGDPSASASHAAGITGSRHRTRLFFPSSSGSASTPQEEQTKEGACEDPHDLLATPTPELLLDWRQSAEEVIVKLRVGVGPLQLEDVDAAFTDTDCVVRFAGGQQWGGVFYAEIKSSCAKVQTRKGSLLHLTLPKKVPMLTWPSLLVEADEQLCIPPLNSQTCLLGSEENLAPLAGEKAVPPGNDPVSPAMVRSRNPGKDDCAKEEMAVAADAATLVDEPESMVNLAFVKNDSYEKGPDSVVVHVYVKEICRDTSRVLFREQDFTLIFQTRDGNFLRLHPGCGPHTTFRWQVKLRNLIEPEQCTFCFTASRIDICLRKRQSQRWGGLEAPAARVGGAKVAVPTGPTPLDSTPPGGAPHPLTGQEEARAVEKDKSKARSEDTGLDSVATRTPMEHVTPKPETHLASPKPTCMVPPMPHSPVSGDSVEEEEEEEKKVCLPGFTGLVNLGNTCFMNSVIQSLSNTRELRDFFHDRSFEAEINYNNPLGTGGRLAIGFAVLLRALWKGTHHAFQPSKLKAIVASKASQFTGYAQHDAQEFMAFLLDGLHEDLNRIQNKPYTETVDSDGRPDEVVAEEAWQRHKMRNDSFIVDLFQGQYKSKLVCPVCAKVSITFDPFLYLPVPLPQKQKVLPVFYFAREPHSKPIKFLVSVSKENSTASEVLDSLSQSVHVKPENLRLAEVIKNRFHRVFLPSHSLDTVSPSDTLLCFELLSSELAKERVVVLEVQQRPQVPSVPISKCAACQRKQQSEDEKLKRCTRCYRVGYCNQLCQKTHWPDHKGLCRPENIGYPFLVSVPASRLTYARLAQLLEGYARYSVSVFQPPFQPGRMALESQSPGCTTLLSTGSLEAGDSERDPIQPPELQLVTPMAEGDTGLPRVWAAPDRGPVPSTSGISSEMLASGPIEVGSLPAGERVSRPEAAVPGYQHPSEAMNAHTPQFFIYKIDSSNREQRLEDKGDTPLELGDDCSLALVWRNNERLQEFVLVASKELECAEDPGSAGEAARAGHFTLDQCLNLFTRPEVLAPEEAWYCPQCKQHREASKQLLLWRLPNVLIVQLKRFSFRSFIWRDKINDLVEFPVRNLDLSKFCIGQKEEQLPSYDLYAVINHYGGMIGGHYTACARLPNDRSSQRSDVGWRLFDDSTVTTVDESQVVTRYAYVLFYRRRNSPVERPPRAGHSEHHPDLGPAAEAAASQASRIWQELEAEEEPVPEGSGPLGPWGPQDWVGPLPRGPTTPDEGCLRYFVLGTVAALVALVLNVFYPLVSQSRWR

| IC50 (USP19) [µM] | Compound | Overall selectivity profile (residual activity normalised to DMSO control) [1] |
| --- | --- | --- |
| 50 to 250 | C[C@H](CC(=O)N1CCC(O)(Cn2cc(-c3cnn(C)c3)c(-c3ccccc3)cc2=O)CC1)c1ccccc1 [Example 109, (R)-1-((4-Hydroxy-1-(3-phenylbutanoyl)piperidin-4-yl)methyl)-5-(1-methyl-1H-pyrazol-4-yl)-4-phenylpyridin-2(1H)-one] |  |
| 5 to 50 | CN(C)C(=O)c1cn(CC2(O)CCN(C(=O)c3ncoc3C3CC3)CC23CCCC3)c(=O)cc1-c1ccccc1 (centres unmarked) [Example 193, 1-((7-(5-Cyclopropyloxazole-4-carbonyl)-10-hydroxy-7-azaspiro[4.5]decan-10-yl)methyl)-N,N-dimethyl-6-oxo-4-phenyl-1,6-dihydropyridine-3-carboxamide] |  |
| < 0.5 | C[C@H](CC1CCCCC1)C(=O)N1CC[C@@](O)(Cn2cc(C(=O)N3CCNCC3)c(-c3ccccc3)cc2=O)C(C)(C)C1 [Example 124, 1-(((S)-1-((R)-3-Cyclohexyl-2-methylpropanoyl)-4-hydroxy-3,3-dimethylpiperidin-4-yl)methyl)-4-phenyl-5-(piperazine-1-carbonyl)pyridin-2(1H)-one] | selectivity is demonstrated |
| < 0.5 | C[C@H](CC1CCCCC1)C(=O)N1CCC(O)(Cn2cc(C(=O)N(C)C)c(-c3ccsc3)cc2=O)C2(CCCC2)C1 (stereo partly drawn) [Example 155, 1-((7-((R)-3-Cyclohexyl-2-methylpropanoyl)-10-hydroxy-7-azaspiro[4.5]decan-10-yl)methyl)-N,N-dimethyl-6-oxo-4-(thiophen-3-yl)-1,6-dihydropyridine-3-carboxamide] |  |

From patent US11053213B2, “Pharmaceutical compounds” (ALMAC DISCOVERY LIMITED, priority 2016, dated 2021)
